Reference: patent US8076487B2, “Pyridone derivative and herbicide” (Kumiai Chemical Industry Co., Ltd., priority 2006, dated 2011)

How the values were obtained:
Format in all cases: in vivo
[1] = test system: early watergrass (Echinochloa oryzicola Vasing); assay: Test Example 1: herbicidal effect by soil application to paddy field; settings: paddy field soil application; active ingredient 1,000 g per 1 hectare; wettable powder added dropwise to water surface the day after sowing; examined on the 21st day after application
Method in brief: (§1)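 Under greenhouse conditions, seeds sown on puddled paddy soil in 100 cm2 pots under 3 cm of standing water received the test compound; injury was assessed with a standard scoring scheme three weeks (day 21) after treatment.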

[2] = test system: heartshape false pickerelweed (Monochoria vaginalis (Burm.f.) C.Presl); assay: as above; settings: paddy field soil application; active ingredient 1,000 g per 1 hectare; wettable powder added dropwise to water surface the day after sowing; examined on the 21st day after application
Method in brief: as §1

[3] = test system: Japanese bulrush (Scirpus juncoides Roxb.); assay: as above; settings: paddy field soil application; active ingredient 1,000 g per 1 hectare; wettable powder added dropwise to water surface the day after sowing; examined on the 21st day after application
Method in brief: as §1

[4] = test system: slender amaranth (Amaranthus viridis L.); assay: Test Example 3: herbicidal effect by application to upland field (foliage treatment); settings: 14th day after application; for herbicidal effect (index), Slender Amaranth: foliage treatment, plants grown two weeks, 1,000 g active ingredient per hectare; for herbicidal effect, Slender Amaranth: foliage treatment, 1,000 g active ingredient per 1 hectare, greenhouse
Method in brief: (§2)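 Two weeks after sowing in field soil under greenhouse conditions, seedlings receive a top-down foliar spray of wettable powder diluted in water at an active-ingredient rate of 1,000 g per hectare. Effect is rated against a standard 14 days post-treatment.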

[5] = test system: green foxtail (Setaria viridis (L.) P. Beauv.); assay: as above; settings: 14th day after application; for herbicidal effect (index), Green Foxtail: foliage treatment, plants grown two weeks, 1,000 g active ingredient per hectare; for herbicidal effect, Green Foxtail: foliage treatment, 1,000 g active ingredient per 1 hectare, greenhouse
Method in brief: as §2

[6] = test system: velvetleaf (Abutilon theophrasti medicus); assay: as above; settings: 14th day after application; for herbicidal effect (index), Velvetleaf: foliage treatment, plants grown two weeks, 1,000 g active ingredient per hectare; for herbicidal effect, Velvetleaf: foliage treatment, 1,000 g active ingredient per 1 hectare, greenhouse
Method in brief: as §2

[7] = test system: barnyardgrass (Echinochloa crus-galli (L.) P. Beauv. var. crus-galli); assay: as above; settings: 14th day after application; for herbicidal effect (index), Barnyardgrass: foliage treatment, plants grown two weeks, 1,000 g active ingredient per hectare; for herbicidal effect, Barnyardgrass: foliage treatment, 1,000 g active ingredient per 1 hectare, greenhouse
Method in brief: as §2

COCCCn1c(C(F)(F)F)ccc(C(=O)C2=C(O)CCCC2=O)c1=O [I-42]
herbicidal effect, Echinochloa oryzicola Vasing [1]: 5 (90% or more of herbicidal effect and crop phytotoxicity) | herbicidal effect, Monochoria vaginalis (Burm. f.) C. Presl [2]: 5 (90% or more of herbicidal effect and crop phytotoxicity) | herbicidal effect, Scirpus juncoides Roxb. [3]: 5 (90% or more of herbicidal effect and crop phytotoxicity) | herbicidal effect (index), Slender Amaranth [4]: 5 (90% or more of herbicidal effect and crop phytotoxicity) | herbicidal effect (index), Green Foxtail [5]: 5 (90% or more of herbicidal effect and crop phytotoxicity) | herbicidal effect (index), Velvetleaf [6]: 5 (90% or more of herbicidal effect and crop phytotoxicity) | herbicidal effect (index), Barnyardgrass [7]: 5 (90% or more of herbicidal effect and crop phytotoxicity)

Cn1ncc(C(=O)c2ccc(C(F)(F)F)n(Cc3c(C(F)(F)F)nn(C)c3OC(F)F)c2=O)c1O [IV-108]
herbicidal effect, Echinochloa oryzicola Vasing [1]: 5 (90% or more of herbicidal effect and crop phytotoxicity) | herbicidal effect, Monochoria vaginalis (Burm. f.) C. Presl [2]: 4 (70 to less than 90% of herbicidal effect and crop phytotoxicity) | herbicidal effect, Scirpus juncoides Roxb. [3]: 5 (90% or more of herbicidal effect and crop phytotoxicity) | herbicidal effect, Slender Amaranth [4]: 4 (70 to less than 90% of herbicidal effect and crop phytotoxicity) | herbicidal effect, Green Foxtail [5]: 4 (70 to less than 90% of herbicidal effect and crop phytotoxicity) | herbicidal effect, Velvetleaf [6]: 5 (90% or more of herbicidal effect and crop phytotoxicity) | herbicidal effect, Barnyardgrass [7]: 4 (70 to less than 90% of herbicidal effect and crop phytotoxicity)

C#CCn1c(C(F)(F)F)ccc(C(=O)C2=C(O)CCCC2=O)c1=O [I-14]
herbicidal effect, Echinochloa oryzicola Vasing [1]: 5 (90% or more of herbicidal effect and crop phytotoxicity) | herbicidal effect, Monochoria vaginalis (Burm. f.) C. Presl [2]: 5 (90% or more of herbicidal effect and crop phytotoxicity) | herbicidal effect, Scirpus juncoides Roxb. [3]: 5 (90% or more of herbicidal effect and crop phytotoxicity) | herbicidal effect (index), Slender Amaranth [4]: 5 (90% or more of herbicidal effect and crop phytotoxicity) | herbicidal effect (index), Green Foxtail [5]: 5 (90% or more of herbicidal effect and crop phytotoxicity) | herbicidal effect (index), Velvetleaf [6]: 5 (90% or more of herbicidal effect and crop phytotoxicity) | herbicidal effect (index), Barnyardgrass [7]: 5 (90% or more of herbicidal effect and crop phytotoxicity)

COCC(C)n1c(C(F)(F)F)ccc(C(=O)C2=C(O)C3C=CC(C3)C2=O)c1=O (stereo not shown) [III-44]
herbicidal effect, Echinochloa oryzicola Vasing [1]: 5 (90% or more of herbicidal effect and crop phytotoxicity) | herbicidal effect, Monochoria vaginalis (Burm. f.) C. Presl [2]: 5 (90% or more of herbicidal effect and crop phytotoxicity) | herbicidal effect, Scirpus juncoides Roxb. [3]: 5 (90% or more of herbicidal effect and crop phytotoxicity) | herbicidal effect, Slender Amaranth [4]: 5 (90% or more of herbicidal effect and crop phytotoxicity) | herbicidal effect, Green Foxtail [5]: 5 (90% or more of herbicidal effect and crop phytotoxicity) | herbicidal effect, Velvetleaf [6]: 5 (90% or more of herbicidal effect and crop phytotoxicity) | herbicidal effect, Barnyardgrass [7]: 4 (70 to less than 90% of herbicidal effect and crop phytotoxicity)

C=C(C)Cn1c(C(F)(F)F)ccc(C(=O)c2cnn(C)c2O)c1=O [IV-13]
herbicidal effect, Echinochloa oryzicola Vasing [1]: 5 (90% or more of herbicidal effect and crop phytotoxicity) | herbicidal effect, Monochoria vaginalis (Burm. f.) C. Presl [2]: 5 (90% or more of herbicidal effect and crop phytotoxicity) | herbicidal effect, Scirpus juncoides Roxb. [3]: 5 (90% or more of herbicidal effect and crop phytotoxicity) | herbicidal effect, Slender Amaranth [4]: 5 (90% or more of herbicidal effect and crop phytotoxicity) | herbicidal effect, Green Foxtail [5]: 5 (90% or more of herbicidal effect and crop phytotoxicity) | herbicidal effect, Velvetleaf [6]: 5 (90% or more of herbicidal effect and crop phytotoxicity) | herbicidal effect, Barnyardgrass [7]: 5 (90% or more of herbicidal effect and crop phytotoxicity)

CCCS(=O)(=O)Oc1c(C(=O)c2ccc(C(F)(F)F)n(-c3ccc4c(c3)OCO4)c2=O)cnn1C(C)C [IV-100]
herbicidal effect, Echinochloa oryzicola Vasing [1]: 5 (90% or more of herbicidal effect and crop phytotoxicity) | herbicidal effect, Monochoria vaginalis (Burm. f.) C. Presl [2]: 5 (90% or more of herbicidal effect and crop phytotoxicity) | herbicidal effect, Scirpus juncoides Roxb. [3]: 5 (90% or more of herbicidal effect and crop phytotoxicity) | herbicidal effect, Slender Amaranth [4]: 4 (70 to less than 90% of herbicidal effect and crop phytotoxicity) | herbicidal effect, Green Foxtail [5]: 5 (90% or more of herbicidal effect and crop phytotoxicity) | herbicidal effect, Velvetleaf [6]: 5 (90% or more of herbicidal effect and crop phytotoxicity) | herbicidal effect, Barnyardgrass [7]: 5 (90% or more of herbicidal effect and crop phytotoxicity)

CSCCCn1c(C(F)(F)F)ccc(C(=O)C2=C(O)CCCC2=O)c1=O [I-69]
herbicidal effect, Echinochloa oryzicola Vasing [1]: 5 (90% or more of herbicidal effect and crop phytotoxicity) | herbicidal effect, Monochoria vaginalis (Burm. f.) C. Presl [2]: 5 (90% or more of herbicidal effect and crop phytotoxicity) | herbicidal effect, Scirpus juncoides Roxb. [3]: 5 (90% or more of herbicidal effect and crop phytotoxicity) | herbicidal effect (index), Slender Amaranth [4]: 5 (90% or more of herbicidal effect and crop phytotoxicity) | herbicidal effect (index), Green Foxtail [5]: 5 (90% or more of herbicidal effect and crop phytotoxicity) | herbicidal effect (index), Velvetleaf [6]: 5 (90% or more of herbicidal effect and crop phytotoxicity) | herbicidal effect (index), Barnyardgrass [7]: 5 (90% or more of herbicidal effect and crop phytotoxicity)

O=C1CCCC(O)=C1C(=O)c1ccc(C(F)(F)F)n(CC2OCCO2)c1=O [I-138]
herbicidal effect, Echinochloa oryzicola Vasing [1]: 5 (90% or more of herbicidal effect and crop phytotoxicity) | herbicidal effect, Monochoria vaginalis (Burm. f.) C. Presl [2]: 5 (90% or more of herbicidal effect and crop phytotoxicity) | herbicidal effect, Scirpus juncoides Roxb. [3]: 5 (90% or more of herbicidal effect and crop phytotoxicity) | herbicidal effect, Slender Amaranth [4]: 5 (90% or more of herbicidal effect and crop phytotoxicity) | herbicidal effect, Green Foxtail [5]: 4 (70 to less than 90% of herbicidal effect and crop phytotoxicity) | herbicidal effect, Velvetleaf [6]: 5 (90% or more of herbicidal effect and crop phytotoxicity) | herbicidal effect, Barnyardgrass [7]: 5 (90% or more of herbicidal effect and crop phytotoxicity)

O=C1CCCC(O)=C1C(=O)c1ccc(C(F)(F)F)n(Cc2cccc([N+](=O)[O-])c2)c1=O [I-116]
herbicidal effect, Echinochloa oryzicola Vasing [1]: 5 (90% or more of herbicidal effect and crop phytotoxicity) | herbicidal effect, Monochoria vaginalis (Burm. f.) C. Presl [2]: 5 (90% or more of herbicidal effect and crop phytotoxicity) | herbicidal effect, Scirpus juncoides Roxb. [3]: 5 (90% or more of herbicidal effect and crop phytotoxicity) | herbicidal effect, Slender Amaranth [4]: 5 (90% or more of herbicidal effect and crop phytotoxicity) | herbicidal effect, Green Foxtail [5]: 3 (50 to less than 70% of herbicidal effect and crop phytotoxicity) | herbicidal effect, Velvetleaf [6]: 5 (90% or more of herbicidal effect and crop phytotoxicity) | herbicidal effect, Barnyardgrass [7]: 5 (90% or more of herbicidal effect and crop phytotoxicity)

CCC(C)n1c(C(F)(F)F)ccc(C(=O)C2=C(O)C3CCC(C3)C2=O)c1=O (stereo not shown) [III-8]
herbicidal effect, Echinochloa oryzicola Vasing [1]: 5 (90% or more of herbicidal effect and crop phytotoxicity) | herbicidal effect, Monochoria vaginalis (Burm. f.) C. Presl [2]: 5 (90% or more of herbicidal effect and crop phytotoxicity) | herbicidal effect, Scirpus juncoides Roxb. [3]: 5 (90% or more of herbicidal effect and crop phytotoxicity) | herbicidal effect, Slender Amaranth [4]: 3 (50 to less than 70% of herbicidal effect and crop phytotoxicity) | herbicidal effect, Green Foxtail [5]: 5 (90% or more of herbicidal effect and crop phytotoxicity) | herbicidal effect, Velvetleaf [6]: 5 (90% or more of herbicidal effect and crop phytotoxicity) | herbicidal effect, Barnyardgrass [7]: 5 (90% or more of herbicidal effect and crop phytotoxicity)

COC(=O)Nn1c(C(F)(F)F)ccc(C(=O)C2=C(O)CCCC2=O)c1=O [I-189]
herbicidal effect, Echinochloa oryzicola Vasing [1]: 5 (90% or more of herbicidal effect and crop phytotoxicity) | herbicidal effect, Monochoria vaginalis (Burm. f.) C. Presl [2]: 5 (90% or more of herbicidal effect and crop phytotoxicity) | herbicidal effect, Scirpus juncoides Roxb. [3]: 5 (90% or more of herbicidal effect and crop phytotoxicity) | herbicidal effect, Slender Amaranth [4]: 5 (90% or more of herbicidal effect and crop phytotoxicity) | herbicidal effect, Green Foxtail [5]: 4 (70 to less than 90% of herbicidal effect and crop phytotoxicity) | herbicidal effect, Velvetleaf [6]: 5 (90% or more of herbicidal effect and crop phytotoxicity) | herbicidal effect, Barnyardgrass [7]: 4 (70 to less than 90% of herbicidal effect and crop phytotoxicity)

CCN(C(=O)OC(C)(C)C)n1c(C(F)(F)F)ccc(C(=O)C2=C(O)CCCC2=O)c1=O [I-195]
herbicidal effect, Echinochloa oryzicola Vasing [1]: 5 (90% or more of herbicidal effect and crop phytotoxicity) | herbicidal effect, Monochoria vaginalis (Burm. f.) C. Presl [2]: 5 (90% or more of herbicidal effect and crop phytotoxicity) | herbicidal effect, Scirpus juncoides Roxb. [3]: 5 (90% or more of herbicidal effect and crop phytotoxicity) | herbicidal effect, Slender Amaranth [4]: 3 (50 to less than 70% of herbicidal effect and crop phytotoxicity) | herbicidal effect, Green Foxtail [5]: 4 (70 to less than 90% of herbicidal effect and crop phytotoxicity) | herbicidal effect, Velvetleaf [6]: 5 (90% or more of herbicidal effect and crop phytotoxicity) | herbicidal effect, Barnyardgrass [7]: 5 (90% or more of herbicidal effect and crop phytotoxicity)

Cn1nc(C(F)(F)F)c(Cn2c(C(F)(F)F)ccc(C(=O)C3=C(O)CCCC3=O)c2=O)c1OC(F)F [I-127]
herbicidal effect, Echinochloa oryzicola Vasing [1]: 4 (70 to less than 90% of herbicidal effect and crop phytotoxicity) | herbicidal effect, Monochoria vaginalis (Burm. f.) C. Presl [2]: 4 (70 to less than 90% of herbicidal effect and crop phytotoxicity) | herbicidal effect, Scirpus juncoides Roxb. [3]: 3 (50 to less than 70% of herbicidal effect and crop phytotoxicity) | herbicidal effect, Slender Amaranth [4]: 5 (90% or more of herbicidal effect and crop phytotoxicity) | herbicidal effect, Green Foxtail [5]: 5 (90% or more of herbicidal effect and crop phytotoxicity) | herbicidal effect, Velvetleaf [6]: 5 (90% or more of herbicidal effect and crop phytotoxicity) | herbicidal effect, Barnyardgrass [7]: 5 (90% or more of herbicidal effect and crop phytotoxicity)
